Measured values from patent US20140363845A1, “CHOLESTEROL-BASED MEDIA SUPPLEMENTS FOR CELL CULTURE” (Biogen Idec MA Inc., priority 2011, published 2014).

Columns and labels:
NS0 cells [1] = conditions: ethanol dose study
Protocol: Cells were suspended in fresh medium containing increased amount of GCLC at concentrations of 5 mg/L and 7.5 mg/L and then incubated for 3 days in 2 L bags under standard cell culture conditions.

NS0 cells [2] = experiment: cholesterol dosing in high cell density pseudo-perfusion shake flask culture; format: cell-based, murine; conditions: seed density 8×10^6 cells/ml
Protocol: FIG. 5A and FIG. 5B are graphs of a cholesterol dosing study in high cell density cell culture generated using pseudo-perfusion mode. […] Pseudo-perfusion cultures were established in shake flasks using growth medium supplement with GCLC at the following concentrations: 2.5 mg/L (▪), 7.5 mg/L (▴), 10.0 mg/L (0) to 12.5 mg/L (∘). Full volume medium exchanges were carried out on a daily basis. […] There was full volume exchange of medium in the shake flasks on a daily basis. The initial seed density was 8×10^6 cells/ml, and one volume of fresh growth medium was exchanged daily starting on day 1 post inoculation.

NS0 cells [3] = experiment: shake flask cell growth in medium held in WAVE Bioreactor bag; parameters: species or system murine; conditions: based on medium hold study and shake flask growth and viability data
Protocol: (§1) The rate of cholesterol depletion from the culture medium in single-use disposable bioreactor bags was determined. A medium hold study was performed in which 1.4 L of fresh pre-warmed culture medium containing 2.5 mg/L cholesterol (1 ml GCLC/liter medium) was added into a 2 L WAVE BIOREACTOR™ bag. The bag was then incubated under standard culture conditions, and 200 ml medium aliquots were aseptically removed from the bag at 15 min, 4 h, 7.5 h and 22 h incubation times. The medium aliquots at each time point were analyzed for cholesterol concentration (FIG. 1) and used to inoculate shake flask cultures seeded at 4×10^5 cells/ml. Shake-flask cultures were passaged for three days under standard conditions. A shake-flask control culture (no prior exposure to WAVE Bioreactor™ bag) containing 2.5 mg/L cholesterol (1 ml GCLC per liter medium) was seeded in parallel. Viable cell density and viability were measured every 24 hours (FIG. 2).
A cholesterol-dependent NS0 cell line expressing recombinant antibody was used in the study. The culture medium used was a chemically defined medium formulation. […]
(§2) Viable cell density was determined using a Cedex Automated Cell Culture Analyzer (Roche Innovatis AG). pH and pCO2 were measured off-line using a BioProfile pHOx analyzer (Nova Biomedical). Cholesterol concentration was measured using GC analysis by Invitrogen Medium Analytical Services.

[4] = medium hold study: cholesterol adsorption in disposable WAVE Bioreactor bag; format: physicochemical; conditions: medium with 2.5 mg/L cholesterol (1 ml GCLC/liter), after 22 hours of incubation in 2 L WAVE Bioreactor bag
Protocol: as §1, §2

| cholesterol concentration in the medium [4] | Structure (SMILES) | ethanol concentration at which cell growth was not inhibited (NS0 cells [1]) | support of cell growth (NS0 cells [2]; 2.5 mg total cholesterol/L, daily full volume medium exchange) | cholesterol concentration required to support growth (NS0 cells [2]; high cell density pseudo-perfusion culture) [mg/L] | cholesterol concentration in the medium to be maintained to support cell growth (NS0 cells [3]) |
| --- | --- | --- | --- | --- | --- |
|  | CCO [ethanol] | below 2% |  |  |  |
| below detectable limits | CC(C)CCC[C@@H](C)[C@H]1CC[C@H]2[C@@H]3CC=C4C[C@@H](O)CC[C@]4(C)[C@H]3CC[C@]12C [cholesterol] |  | insufficient to support growth | > 7.5 | above 1.0 mg/L |
